What was measured:
Type in all cases: in vivo
[1] = system: Alopecurus myosuroides (ALOMY); experiment: Test 1A glasshouse assay, pre-emergence herbicidal activity; details: 312 h, 250 g/ha, 13 days after application, read-out: Pre-Emergence Herbicidal Activity (% Phytotoxicity) ALOMY
Experimental: (§1) Seeds of a variety of test species are sown in standard soil (usually sandy soil) in pots. After cultivation for one day (pre-emergence) or after 8 days cultivation (post-emergence) under controlled conditions in a glasshouse (at 24/16° C., day/night; 14 hours light; 65% humidity), the plants are sprayed with an aqueous spray solution derived from the formulation of the technical active ingredient (compound) in acetone/water (50:50) solution containing 0.5% Tween 20 (polyoxyethylene sorbitan monolaurate, CAS RN 9005-64-5). The test plants are then grown under controlled conditions in a glasshouse (at 24/16° C., day/night; 14 hours light; 65% humidity) and watered twice daily. 13 days after application of the test compounds, for pre- and post-emergence, the test is evaluated visually for percentage phytotoxicity to each plant (where 100%=total damage to plant; 0%=no damage to plant).
Alopecurus myosuroides (ALOMY), Setaria faberi (SETFA), Echinochloa crus-galli (ECHCG), Amaranthus retroflexus (AMARE), and Abutilon theophasti Medik. (ABUTH, common English name “velvetleaf”). Of these, Alopecurus myosuroides (ALOMY), Setaria faberi (SETFA), and Echinochloa crus-galli (ECHCG) are grassy monocotyledonous weeds.
Lolium perenne (LOLPE), Triticum aestivum (TRZAW, winter wheat), Alopecurus myosuroides (ALOMY), Echinochloa crus-galli (ECHCG), and Avena fatua (AVEFA). All these are grassy monocotyledonous weeds and/or (for wheat) grassy crops.

[2] = system: Echinochloa crus-galli (ECHCG); experiment: as above; details: 312 h, 250 g/ha, 13 days after application, read-out: Pre-Emergence Herbicidal Activity (% Phytotoxicity) ECHCG
Experimental: as §1
(§2) Alopecurus myosuroides (ALOMY), Setaria faberi (SETFA), Echinochloa crus-galli (ECHCG), Amaranthus retroflexus (AMARE), and Abutilon theophasti Medik. (ABUTH, common English name “velvetleaf”). Of these, Alopecurus myosuroides (ALOMY), Setaria faberi (SETFA), and Echinochloa crus-galli (ECHCG) are grassy monocotyledonous weeds. […]

[3] = system: Alopecurus myosuroides (ALOMY); experiment: Test 1A glasshouse assay, post-emergence herbicidal activity; details: 312 h, 13 days after application, read-out: Post-Emergence Herbicidal Activity (% Phytotoxicity) ALOMY
Experimental: as §1, §2

[4] = system: Echinochloa crus-galli (ECHCG); experiment: as above; details: 312 h, 13 days after application, read-out: Post-Emergence Herbicidal Activity (% Phytotoxicity) ECHCG
Experimental: as §1, §2

[5] = system: Alopecurus myosuroides (ALOMY); experiment: Biological Example 3 (Test 2 glasshouse assay), post-emergence herbicidal activity
Experimental: (§3) Seeds of a variety of monocotyledonous and dicotyledonous test plants are sown in standard soil in pots. The plants are cultivated for one day (for pre-emergence) or for about 12 days (range=10-13 days) (for post-emergence) under controlled conditions in a glasshouse (warm climate species at 24/18° C., cool climate species at 20/16° C., both at day/night; 16 hours light; 65% humidity).
(§4) An “instant formulation”, known as the “IF50”, containing 50 g/litre (i.e. 5% w/v) of the “technical” (i.e. unformulated) active ingredient is prepared by dissolving the active ingredient in a mixture of organic solvents and emulsifier, details of which are provided in the Table below. This IF50 is then mixed with a small, variable amount of acetone to aid dissolution, before addition of a 0.2% v/v aqueous solution of the adjuvant X-77 (which is a mixture of alkyl aryl polyoxyethylene glycols and free fatty acids in isopropanol, CAS Registry number 11097-66-8), as the aqueous diluent, to form an aqueous spray solution which contains a predetermined concentration of the active ingredient (which varies depending on the application rate of the active ingredient to the plants) and 0.2% v/v of the adjuvant X-77. This aqueous spray solution is then sprayed onto the plants, after one day's cultivation (for pre-emergence) or after about 12 days' cultivation (for post-emergence).
(§5) The test plants are then grown on, in a glasshouse (greenhouse) under controlled conditions (at either 24/18° C. or 20/16° C. (day/night) as mentioned above; 16 hours light; 65% humidity) and are watered twice daily. Either 15 days after application of the test compound (15 DAA) (for post-emergence), or 20 days after application of the test compound (20 DAA) (for pre-emergence), the test plants are evaluated visually, and an assessed percentage phytotoxicity score is given for each compound application on each plant species (where 100%=total damage to plant; 0%=no damage to plant).
(§6) Cool climate crop plants: Triticum aestivum (TRZAW, winter wheat), Brassica napus (BRSNN, rape, also called oilseed rape or rapeseed), Beta vulgaris (BEAVA, sugar beet). Warm climate crop plants: Glycine max (GLXMA, soybean). Cool climate (“cool season”) grassy monocotyledonous weeds: Alopecurus myosuroides (ALOMY), Avena fatua (AVEFA), Lolium perenne (LOLPE). Warm climate (“warm season”) grassy monocotyledonous weeds: Setaria faberi (SETFA), SORVU (Sorghum bicolor (L.) Moench ssp. Bicolor, or Sorghum vulgare Pers.), Digitaria sanguinalis (DIGSA), Echinochloa crus-galli (ECHCG), and Brachiaria plantaginea (BRAPL).

[6] = system: Beta vulgaris (BEAVA, sugar beet); experiment: as above
Experimental: as §3, §4, §5, §6

[7] = system: Brachiaria plantaginea (BRAPL); experiment: as above
Experimental: as §3, §4, §5, §6

[8] = system: Echinochloa crus-galli (ECHCG); experiment: as above
Experimental: as §3, §4, §5, §6

[9] = system: Glycine max (GLXMA, soybean); experiment: as above
Experimental: as §3, §4, §5, §6

Lolium perenne (LOLPE) = experiment: as above
Experimental: as §3, §4, §5, §6

[10] = system: SORVU (Sorghum bicolor (L.) Moench ssp. Bicolor, or Sorghum vulgare Pers.); experiment: as above
Experimental: as §3, §4, §5, §6

Setaria faberi (SETFA) = experiment: as above
Experimental: as §3, §4, §5, §6

**Q.** Which results are given for CC#Cc1cc(C)c(-c2c(OC(=O)C(C)(C)C)n3n(c2=O)CCOCC3)c(C)c1 [Compound P4]?
**A.** inhibition at 250 g/ha [1]: 100%; inhibition at 250 g/ha [2]: 100%; inhibition at 30 g/ha ([3]; 30 g/ha): 70%; inhibition at 250 g/ha ([3]; 250 g/ha): 90%; inhibition at 30 g/ha ([4]; 30 g/ha): 100%; inhibition at 250 g/ha ([4]; 250 g/ha): 100%; Post-Emergence Herbicidal Activity (Percentage Phytotoxicity) ALOMY ([5]; 8 g/ha): 20%; Post-Emergence Herbicidal Activity (Percentage Phytotoxicity) ALOMY ([5]; 30 g/ha): 60%; Post-Emergence Herbicidal Activity (Percentage Phytotoxicity) ALOMY ([5]; 125 g/ha): 70%; Post-Emergence Herbicidal Activity (Percentage Phytotoxicity) BEAVA ([6]; 8 g/ha): 30%; Post-Emergence Herbicidal Activity (Percentage Phytotoxicity) BEAVA ([6]; 30 g/ha): 40%; Post-Emergence Herbicidal Activity (Percentage Phytotoxicity) BEAVA ([6]; 125 g/ha): 50%; Post-Emergence Herbicidal Activity (Percentage Phytotoxicity) BRAPL ([7]; 8 g/ha (rate by row order)): 90%; Post-Emergence Herbicidal Activity (Percentage Phytotoxicity) BRAPL ([7]; 30 g/ha (rate by row order)): 90%; Post-Emergence Herbicidal Activity (Percentage Phytotoxicity) BRAPL ([7]; 125 g/ha (rate by row order)): 100%; Post-Emergence Herbicidal Activity (Percentage Phytotoxicity) ECHCG ([8]; 8 g/ha (rate by row order)): 60%; Post-Emergence Herbicidal Activity (Percentage Phytotoxicity) ECHCG ([8]; 30 g/ha (rate by row order)): 90%; Post-Emergence Herbicidal Activity (Percentage Phytotoxicity) ECHCG ([8]; 125 g/ha (rate by row order)): 100%; Post-Emergence Herbicidal Activity (Percentage Phytotoxicity) GLXMA ([9]; 8 g/ha): 50%; Post-Emergence Herbicidal Activity (Percentage Phytotoxicity) GLXMA ([9]; 30 g/ha): 60%; Post-Emergence Herbicidal Activity (Percentage Phytotoxicity) GLXMA ([9]; 125 g/ha): 70%; Post-Emergence Herbicidal Activity (Percentage Phytotoxicity) LOLPE (Lolium perenne (LOLPE); 8 g/ha): 30%; Post-Emergence Herbicidal Activity (Percentage Phytotoxicity) LOLPE (Lolium perenne (LOLPE); 30 g/ha): 40%; Post-Emergence Herbicidal Activity (Percentage Phytotoxicity) LOLPE (Lolium perenne (LOLPE); 125 g/ha): 50%; Post-Emergence Herbicidal Activity (Percentage Phytotoxicity) SORVU ([10]; 8 g/ha (rate by row order)): 70%; Post-Emergence Herbicidal Activity (Percentage Phytotoxicity) SORVU ([10]; 30 g/ha (rate by row order)): 80%; Post-Emergence Herbicidal Activity (Percentage Phytotoxicity) SORVU ([10]; 125 g/ha (rate by row order)): 100%; Post-Emergence Herbicidal Activity (Percentage Phytotoxicity) SETFA (Setaria faberi (SETFA); 8 g/ha (rate by row order)): 70%; Post-Emergence Herbicidal Activity (Percentage Phytotoxicity) SETFA (Setaria faberi (SETFA); 30 g/ha (rate by row order)): 80%; Post-Emergence Herbicidal Activity (Percentage Phytotoxicity) SETFA (Setaria faberi (SETFA); 125 g/ha (rate by row order)): 90%
